“And” between values parts separate entries of the source, which are not always exact repeats. Identical values can stand only once.

This note sets out measurements from PMC4482062 (Nucleic Acids Research, 2015).

In data set [1] the target is T1, wild-type CmoB (Escherichia coli, UniProt P76291).
T1 construct: vector LIC-pET30a) (cleaved yes); made in house; host or cells: Escherichia coli BL21 (DE3)
Kind of data set: Isothermal titration calorimetry, wild-type CmoB. The data set is classed as binding. The procedure: (§1) CmoB was extensively dialyzed for 24 h against binding buffer (20-mM HEPES, pH 7.5) using a dialysis cassette with 10-kDa MWCO (Pierce). Lyophilized Cx-SAM was dissolved in the binding buffer at a final concentration of 1.3 mM. SAM was purchased from Sigma and dissolved in binding buffer at a final concentration of 10 mM. Prior to use, all titration samples were centrifuged for 20 min at 4°C. Isothermal titration calorimetry (ITC) experiments were performed at 15°C using an auto-ITC200 (MicroCal, LLC, Northhampton, MA, USA) in which the reaction cell (202.8 μl) containing CmoB (50 μM and 370 μM for Cx-SAM and SAM, respectively) was titrated with 40 × 1-μl injections of 1.3-mM Cx-SAM or 6.7-mM SAM with an equilibration time of 180 s. Raw injection traces were integrated over time, normalized per mol of ligand injected and corrected for the heat of dilution obtained from the plateau of a titration curve. Titration data were analyzed using a single-site model in Origin (version X) and Igor Pro 5/6. […] Based on the chemical synthesis, the Cx-SAM utilized in the binding assay is a racemic mixture, of which only the S-isomer is capable of acting as a substrate/ligand for CmoB. Therefore, the stoichiometry was fixed at 1:1 and the activity of the ligand was introduced as a fitting parameter for Cx-SAM.
A general note: In ITC the heat of successive injections is recorded.

The target in data set [2] is T2, CmoB K91A mutant (Escherichia coli, UniProt P76291, K91A).
T2 construct: vector LIC-pET30a) (cleaved yes); made in house; host or cells: Escherichia coli BL21 (DE3)
T2 sequence (P76291 whole entry K91A): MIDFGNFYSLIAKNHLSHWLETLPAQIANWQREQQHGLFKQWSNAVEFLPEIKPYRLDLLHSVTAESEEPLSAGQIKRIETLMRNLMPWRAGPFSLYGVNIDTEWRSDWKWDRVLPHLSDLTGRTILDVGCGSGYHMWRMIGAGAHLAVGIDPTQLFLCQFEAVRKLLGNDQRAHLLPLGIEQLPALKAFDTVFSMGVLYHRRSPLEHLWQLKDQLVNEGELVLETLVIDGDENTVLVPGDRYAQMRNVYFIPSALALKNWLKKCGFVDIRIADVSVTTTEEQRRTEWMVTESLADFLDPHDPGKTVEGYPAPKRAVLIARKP
In words: Isothermal titration calorimetry, K91A mutant CmoB. The class given is binding. As to conditions: K91A. The method, then:
as §1
The titration curve was analyzed using macroscopic binding constants and enthalpies describing binding of n-molecules of Cx-SAM to tetrameric mutant CmoB. Initially, the titration curve was analyzed with all possible values of n (=1~4). […] Therefore, the titration curve was analyzed using three sets of binding constants and enthalpies (Supplementary Table 2). The fitted values of the macroscopic binding constants were compared to those expected for a case of non-cooperative binding. For both cooperative and non-cooperative binding, K1 is given by 4Ksite where 4 accounts for the number of ligand binding sites in teterameric CmoB (i.e., statistical factor) and Ksite describes the “intrinsic” affinity of each site. Then, Ksite=3.6x10^4 M^-1. The fitted value of K2 is ~ 8.4-fold higher than that calculated for the case of non-cooperative binding (6Ksite^2=7.7x10^9 M^-2), indicating positive cooperativity involved in binding of the second Cx-SAM. Since the population of K91A with three Cx-SAMs bound is negligible, binding of the third Cx-SAM is deduced to be negatively cooperative.
A possible molecular explanation for such heterogeneous cooperativity involved in the interaction between K91A and Cx-SAM is the presence of (at least) two different types of interface between the subunits in tetrameric K91A which is consistent with the structural model of the CmoB tetramer. In this model (Supplementary Figure 9), the four ligand binding sites are initially equivalent, but binding of the first ligand to any of these four sites differentially affects (increases and decreases) the affinities of the neighboring sites for the second ligand through the different subunit interfaces. This model is a variation of the classical “square” model used in the analysis of the interaction between hemoglobin and oxygen(2) and provides a molecular description of the fitted macroscopic binding constants in terms of the intrinsic affinity (Ksite) and two types of cooperativity (ω+ and ω-): K1=4Ksite; K2=2Ksite^2(1+ω++ω-); K4=Ksite^4(ω+ω-)^2. Then, Ksite=3.6x10^4 M^-1, ω+=23.8, and ω-=0.4. The value of ω is equivalent to a fold-change in the Cx-SAM affinity of a binding site in tetrameric K91A when its neighboring site is already occupied by Cx-SAM.
^aIn this model, the interaction is described by a set of binding events where n-molecules of Cx-SAM bind tetrameric CmoB (K91A) with the corresponding binding constants (Kn) and enthalpies (∆Hn°). Initially, the titration curve was analyzed by this model including all possible values of n (=1~4). […] Therefore, the titration curve was analyzed using three sets of binding constants and enthalpies.

For data set [3], the target named is T3, CmoB Y200A mutant (Escherichia coli, UniProt P76291, Y200A).
T3 construct: vector LIC-pET30a) (cleaved yes); made in house; host or cells: Escherichia coli BL21 (DE3)
T3 sequence (P76291 whole entry Y200A): as the sequence (P76291 whole entry K91A) above, with A91K, Y200A counted along it
Kind of data set: Isothermal titration calorimetry, Y200A mutant CmoB. The class given is binding. The procedure: as §1

Data set [4] concerns the target T4, CmoB R315A mutant (Escherichia coli, UniProt P76291, R315A).
T4 construct: vector LIC-pET30a) (cleaved yes); made in house; host or cells: Escherichia coli BL21 (DE3)
In words: Isothermal titration calorimetry, R315A mutant CmoB. The data set is classed as binding. The procedure: as §1

The target of data set [5] is T1, wild-type CmoB. Kind of data set: In vitro LC-MS-based alkyl transfer assay, wild-type CmoB. The data set is classed as biochemical. The procedure:
The assay solution for SAM-dependent mo5U formation contained 10-mM Tris-HCl (pH 8.0), 4-mM MgCl2, 0.2-mM SAM and 20–25 μg (∼20 μM) of total tRNA prepared from cmoB-mutant E. coli cells in 50 μl. Reaction conditions for Cx-SAM-dependent cmo5U formation assay were identical, with the exception that10-μM Cx-SAM was used in place of SAM. Assays were initiated by addition of 0.1–2-μM CmoB to the above mixtures and subsequently incubated at the room temperature. The reaction was terminated by the addition of 0.1-mg/ml P1 nuclease, followed by incubation at 60°C for at least 1 h. […] Hydrolyzed nucleotides were directly applied to HPLC without further processing for LC-MS analysis as described above.

Data set [6] deals with the molecule itself. Kind of data set: AUC; sedimentation velocity, g(s*) distribution fitted to a single-species model; with or without Cx-SAM or SAM.

T4 sequence (P76291 whole entry R315A): as the sequence (P76291 whole entry K91A) above, with A91K, R315A counted along it

In the case of `C[S+](CC[C@H](N)C(=O)[O-])C[C@H]1O[C@@H](n2cnc3c(N)ncnc32)[C@H](O)[C@@H]1O` (some centres unmarked) [SAM, reference compound], the “ΔH°” value was -0.6 ± 0.1 kcal/mol in data set [1] (ITC); -0.62 ± 0.12 kcal/mol in data set [1] (ITC, text); -6.4 ± 0.1 kcal/mol in data set [2] (ITC); -11.1 ± 0.2 kcal/mol in data set [4] (ITC, R315A). Moreover, the “K (binding constant)” value is 4.8 ± 2.0 × 10^3 M^−1 and 4.8 ± 2.0 x 10^3 M^−1 in data set [1] (ITC, 15°C, single-site model); 9.1 ± 0.2 × 10^4 M^−1 and 9.1 ± 0.2 x 10^4 M^−1 in data set [2] (ITC, 15°C, single-site model); “N.D.^e (< 8.4 × 10^3) M^−1” in data set [3] (ITC, 15°C, single-site model, Y200A); 7.1 ± 0.4 x 10^3 M^−1 in data set [4] (ITC, 15°C, single-site model, R315A). The “TΔS°” value in data set [1] (ITC, text) was found to be 4.23 ± 0.27 kcal/mol. Also, the “ΔG°” value in data set [1] (ITC, text) is -4.85 ± 0.24 kcal/mol; in data set [1] (ΔG° = −RT lnK), -4.9 ± 0.2 kcal/mol; in data set [2] (ΔG° = −RT lnK), -6.5 ± 0.1 kcal/mol; in data set [3] (ΔG° = −RT lnK, Y200A) it was above -5.1 kcal/mol; in data set [4] (ΔG° = −RT lnK, R315A) it was -5.1 ± 0.1 kcal/mol. The “ΔS°” value in data set [1] (ITC, text) is given as 14.7 ± 0.9 cal·mol^−1·deg^−1; in data set [1] (ΔS° = (ΔH°−ΔG°)/T), 14.7 ± 0.9 cal/mol/deg; in data set [2] (ΔS° = (ΔH°−ΔG°)/T) it was 0.4 ± 0.1 cal/mol/deg; in data set [4] (ΔS° = (ΔH°−ΔG°)/T, R315A), −21.0 ± 0.8 cal/mol/deg. Further, the Kd is 210 ± 90 µM in data set [1] (ITC); 200 µM and 208 µM in data set [1] (ITC, 15°C); 11 ± 0.2 µM in data set [2] (Kd, ITC, 15°C); above 119 µM in data set [3]; 140 ± 7.3 µM in data set [4]. In data set [5] (2-μM wild-type CmoB, 0.2-mM SAM as alkyl donor), the “Time to observed mo5U formation” value amounted to 5 h. Also, the “Time to detected trace mo5U with both donors present” value in data set [5] (10-μM Cx-SAM and 2-mM SAM) worked out at 2 h.

B1: CmoB carboxymethyl transferase (enzyme, Escherichia coli (BL21 genomic DNA))
chain: MIDFGNFYSLIAKNHLSHWLETLPAQIANWQREQQHGLFKQWSNAVEFLPEIKPYRLDLLHSVTAESEEPLSAGQIKRIETLMRNLMPWRKGPFSLYGVNIDTEWRSDWKWDRVLPHLSDLTGRTILDVGCGSGYHMWRMIGAGAHLAVGIDPTQLFLCQFEAVRKLLGNDQRAHLLPLGIEQLPALKAFDTVFSMGVLYHRRSPLEHLWQLKDQLVNEGELVLETLVIDGDENTVLVPGDRYAQMRNVYFIPSALALKNWLKKCGFVDIRIADVSVTTTEEQRRTEWMVTESLADFLDPHDPGKTVEGYPAPKRAVLIARKP
notes: CmoB of Escherichia coli, cmoB gene amplified from genomic DNA of E. coli BL21 and cloned into LIC-pET30a; calculated monomer mass 37.01 kD; 319-323 C-alphas aligned per protomer in the structures; A selenomethionine-substituted form (made in E. coli B834, purified the same way) gave the experimental phases; also called wild-type CmoB; source: E. coli BL21 (DE3), purified (Ni-agarose, thrombin …)
Consider B1, for which, in data set [6], the “stoichiometry N” value is 4.

In general, Kd refers to the equilibrium constant for the complex coming apart. Low readings indicate a tighter complex, high ones a looser complex. As usually defined, the stoichiometry N is the number of molecules, sites or subunits per partner or assembly.
